Test results reported in ChEMBL document CHEMBL4334537 (ACS Med Chem Lett, 2020).

How the values were obtained:
[1] = Chemical stability of fluorescent labelled compound in PBS buffer at pH 7.4 and 22 degree C measured after 48 hrs by RP-HPLC analysis; assay type: physicochemical; conditions: pH 7.4, 48 h
[2] = Chemical stability of fluorescent labelled compound in PBS buffer assessed as compound decomposition at pH 7.4 and 22 degree C after > 24 hrs by RP-HPLC analysis; assay type: physicochemical; conditions: pH 7.4, 24 h

| SMILES | Stability [1] | Stability [2] |
| --- | --- | --- |
| CC[C@H](C)[C@H](NC(=O)[C@H](Cc1ccc(O)cc1)NC(=O)[C@@H]1CCCN1C(=O)[C@H](CCCNC(=N)NC(=O)NCCOCCOCCNC(=O)CCCCCN1/C(=C/C=C/C=C/C2=[N+](CCCCS(=O)(=O)[O-])c3ccccc3C2(C)C)C(C)(C)c2cc(S(=O)(=O)O)ccc21)NC(=O)[C@@H](N)CCCNC(=N)N)C(=O)N[C@@H](CC(C)C)C(=O)O.O=C(O)C(F)(F)F.O=C(O)C(F)(F)F | Stable |  |
| CC[C@H](C)[C@H](NC(=O)[C@H](Cc1ccc(O)cc1)NC(=O)[C@@H]1CCCN1C(=O)[C@H](CCCNC(=N)N)NC(=O)[C@@H](N)CCCNC(=N)NC(=O)NCCOCCOCC[n+]1c(C)cc(/C=C/C=C/c2ccc(N(C)C)cc2)cc1C)C(=O)N[C@@H](CC(C)C)C(=O)O.O=C(O)C(F)(F)F.O=C(O)C(F)(F)F.O=C(O)C(F)(F)F.O=C([O-])C(F)(F)F |  | Unstable |
| CC[C@H](C)[C@H](NC(=O)[C@H](Cc1ccc(O)cc1)NC(=O)[C@@H]1CCCN1C(=O)[C@H](CCCNC(=N)N)NC(=O)[C@@H](N)CCCNC(=N)NC(=O)NCCOCCOCCNC(=O)CCCCCN1/C(=C/C=C/C=C/C2=[N+](CCCCS(=O)(=O)[O-])c3ccccc3C2(C)C)C(C)(C)c2ccccc21)C(=O)N[C@@H](CC(C)C)C(=O)O.O=C(O)C(F)(F)F.O=C(O)C(F)(F)F.O=C(O)C(F)(F)F | Stable |  |
| CC[C@H](C)[C@H](NC(=O)[C@H](Cc1ccc(O)cc1)NC(=O)[C@@H]1CCCN1C(=O)[C@H](CCCNC(=N)N)NC(=O)[C@@H](N)CCCNC(=N)NC(=O)NCCCCNC(=O)CCCCCN1/C(=C/C=C/C=C/C2=[N+](CCCCS(=O)(=O)[O-])c3ccccc3C2(C)C)C(C)(C)c2cc(S(=O)(=O)O)ccc21)C(=O)N[C@@H](CC(C)C)C(=O)O.O=C(O)C(F)(F)F.O=C(O)C(F)(F)F | Stable |  |
